{"source": "patent US20250230193A1", "about": "“CYCLIC COMPOUND HAVING SELECTIVE KRAS INHIBITORY EFFECT ON HRAS AND NRAS” (CHUGAI SEIYAKU KABUSHIKI KAISHA, priority 2022, published 2025)", "key": {"[1]": {"target": "GDP-bound NRAS wild-type protein (Homo sapiens, UniProt P01111)", "sequence (P01111 whole entry)": "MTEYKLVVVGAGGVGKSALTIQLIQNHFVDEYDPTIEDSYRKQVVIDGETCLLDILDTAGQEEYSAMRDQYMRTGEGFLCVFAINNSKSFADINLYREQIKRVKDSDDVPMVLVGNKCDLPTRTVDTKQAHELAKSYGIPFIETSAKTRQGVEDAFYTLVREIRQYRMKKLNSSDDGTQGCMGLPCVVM", "assay": "Binding to NRAS by surface plasmon resonance (SPR), Single Cycle Kinetics"}, "[2]": {"target": "GDP-bound HRAS wild-type protein (Homo sapiens, UniProt P01112)", "sequence (P01112 whole entry)": "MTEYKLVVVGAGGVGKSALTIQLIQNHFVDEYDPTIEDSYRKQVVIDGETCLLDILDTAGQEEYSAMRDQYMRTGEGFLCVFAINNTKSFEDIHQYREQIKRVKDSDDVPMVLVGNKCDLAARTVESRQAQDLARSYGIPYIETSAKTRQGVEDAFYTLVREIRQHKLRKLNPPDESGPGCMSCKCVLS", "assay": "Binding to HRAS by surface plasmon resonance (SPR), Single Cycle Kinetics"}, "[3]": {"conditions": "KD ratio, GDP-bound NRAS wild-type vs GDP-bound KRAS wild-type, SPR"}, "[4]": {"conditions": "KD ratio, GDP-bound HRAS wild-type vs GDP-bound KRAS wild-type, SPR"}, "[5]": {"conditions": "SPR, GDP-bound wild-type proteins"}}, "note": "*1 amine or outer side, *2 acyl side, *3 side chain or, on linkers, in order; H or OH if unused. Where a SMILES comes first, the peptide text is derived from it. Bridges are numbered along the chain shown (N, C = ends). [ ]: non-standard residue; d: D form. The star is where a group is joined. hPhe(3,5-F2-4-CF3) = N[C@@H](CCc1cc(F)c(C(F)(F)F)c(F)c1)C(=O)O; hPhe(3-Cl-4-CF3) = N[C@@H](CCc1ccc(C(F)(F)F)c(Cl)c1)C(=O)O; NPrPhe(4-CF3) = CCCN[C@@H](Cc1ccc(C(F)(F)F)cc1)C(=O)O; NEtPhe(4-Me) = CCN[C@@H](Cc1ccc(C)cc1)C(=O)O; NMeGly(cPent) = CN[C@H](C(=O)O)C1CCCC1; X46 = CC1(C)CN([*:1])[C@@H]1C(=O)[*:2]; X9 = C[C@@](N[*:1])(C(=O)[*:2])C1CC1; Hyp = O=C(O)[C@@H]1C[C@@H](O)CN1; NMeD = CN[C@@H](CC(=O)O)C(=O)O; NMeL = CN[C@@H](CC(C)C)C(=O)O; Morpholide = C1CN(*)CCO1; Ac5c = NC1(C(=O)O)CCCC1; Aze = O=C(O)[C@@H]1CCN1; Sar = CNCC(=O)O", "data": [{"smiles": "CCCN1C(=O)[C@@H]2CCN2C(=O)[C@H]2N(CC2(C)C)C(=O)[C@H]([C@@H](C)CC)NC(=O)[C@H](CC(C)C)N(C)C(=O)C[C@@H](C(=O)N2CCOCC2)N(C)C(=O)[C@H](C2CCCC2)N(C)C(=O)C2(CCCC2)NC(=O)[C@@H]2CCCN2C(=O)[C@H](CCc2ccc(C(F)(F)F)c(Cl)c2)NC(=O)CN(C)C(=O)[C@@H]1Cc1ccc(C(F)(F)F)cc1", "note": "[PP0277] ([NMeL]I[X46][Aze][NPrPhe(4-CF3)][Sar][hPhe(3-Cl-4-CF3)]P[Ac5c][NMeGly(cPent)][NMeD]-Morpholide; lactam N-11)", "values": [{"measurement": "NRAS/KRAS (ratio of KD for GDP-bound NRAS wild-type to KD for KRAS)", "setting": "[1]; SPR", "result": "C (A compound having a KD ratio of 0.1 or more and less than 3 is denoted as C)"}, {"measurement": "HRAS/KRAS (ratio of KD for GDP-bound HRAS wild-type to KD for KRAS)", "setting": "[2]; SPR", "result": "C (A compound having a KD ratio of 0.1 or more and less than 3 is denoted as C)"}]}, {"smiles": "CCCC[C@H]1C(=O)N[C@@H]([C@@H](C)CC)C(=O)N(C)CC(=O)N(C)[C@H]2C/C=C\\CCN(C2=O)[C@@H](Cc2ccc(C)cc2)C(=O)N(C)CC(=O)N[C@@H](CCc2cc(F)c(C(F)(F)F)c(F)c2)C(=O)N2C[C@H](OCC)C[C@H]2C(=O)NC2(CCC2)C(=O)N(C)[C@@H](C2CCCC2)C(=O)N(C)[C@H](C(=O)N(C)C)CC(=O)N1C", "note": "[PP2798]", "values": [{"measurement": "NRAS/KRAS (ratio of KD value with respect to GDP-bound NRAS wild-type protein to KD value with respect to KRAS)", "setting": "[1]; class symbols", "result": "A (a compound having 10 or more and less than 20 is denoted as A)"}, {"measurement": "HRAS/KRAS (ratio of KD value with respect to GDP-bound HRAS wild-type protein to KD value with respect to KRAS)", "setting": "[2]; class symbols", "result": "A (a compound having 10 or more and less than 20 is denoted as A)"}]}, {"smiles": "CCCN1C(=O)[C@@H]2CCN2C(=O)CN(C)C(=O)[C@H]([C@@H](C)CC)NC(=O)[C@H](CC(C)C)N(C)C(=O)C[C@@H](C(=O)N2CCOCC2)N(C)C(=O)[C@H](C2CCCC2)N(C)C(=O)[C@](C)(C2CC2)NC(=O)[C@@H]2CCCN2C(=O)[C@H](CCc2cc(F)c(C(F)(F)F)c(F)c2)NC(=O)CN(C)C(=O)[C@@H]1Cc1ccc(C(F)(F)F)cc1", "note": "[PP0791] ([NMeL]I[Sar][Aze][NPrPhe(4-CF3)][Sar][hPhe(3,5-F2-4-CF3)]P[X9][NMeGly(cPent)][NMeD]-Morpholide; lactam N-11)", "values": [{"measurement": "NRAS/KRAS (ratio of KD value with respect to GDP-bound NRAS wild-type protein to KD value with respect to KRAS)", "setting": "[1]; SPR", "result": "C (A compound having a KD ratio of 0.1 or more and less than 3 is denoted as C)"}, {"measurement": "HRAS/KRAS (ratio of KD value with respect to GDP-bound HRAS wild-type protein to KD value with respect to KRAS)", "setting": "[2]; SPR", "result": "B (a compound having 3 or more and less than 10 is denoted as B)"}]}, {"smiles": "CC[C@H](C)[C@@H]1NC(=O)[C@H](CC(C)C)N(C)C(=O)C[C@@H](C(=O)N2CCOCC2)N(C)C(=O)[C@H](C2CCCC2)N(C)C(=O)C2(CCCC2)NC(=O)[C@@H]2C[C@@H](O)CN2C(=O)[C@H](CCc2ccc(C(F)(F)F)c(Cl)c2)NC(=O)CN(C)C(=O)[C@H](Cc2ccc(C)cc2)N(CC)C(=O)CN(C)C(=O)CN(C)C1=O", "note": "[PP0041] ([NMeL]I[Sar][Sar][NEtPhe(4-Me)][Sar][hPhe(3-Cl-4-CF3)][Hyp][Ac5c][NMeGly(cPent)][NMeD]-Morpholide; lactam N-11)", "values": [{"measurement": "NRAS/KRAS (ratio of KD for GDP-bound NRAS wild-type to KD for KRAS)", "setting": "[1]; SPR", "result": "B (a compound having 3 or more and less than 10 is denoted as B)"}, {"measurement": "HRAS/KRAS (ratio of KD for GDP-bound HRAS wild-type to KD for KRAS)", "setting": "[2]; SPR", "result": "C (A compound having a KD ratio of 0.1 or more and less than 3 is denoted as C)"}]}, {"smiles": "CCO[C@@H]1C[C@H]2C(=O)NC3(CC(C)(C)C3)C(=O)N(C)[C@@H](C3CCCC3)C(=O)N(C)[C@H](C(=O)N(C)CC)CC(=O)N(C)[C@@H](CC(C)C)C(=O)N[C@@H]([C@@H](C)CC)C(=O)N(C)CC(=O)N(C)[C@H]3C/C=C\\CCN(C3=O)[C@@H](Cc3ccc(C(F)F)cc3)C(=O)N(C)CC(=O)N[C@@H](CCc3ccc(Cl)c(Cl)c3)C(=O)N2C1", "note": "[PP2827]", "values": [{"measurement": "NRAS/KRAS (ratio of KD value with respect to GDP-bound NRAS wild-type protein to KD value with respect to KRAS)", "setting": "[1]; class symbols", "result": "A (a compound having 10 or more and less than 20 is denoted as A)"}, {"measurement": "HRAS/KRAS (ratio of KD value with respect to GDP-bound HRAS wild-type protein to KD value with respect to KRAS)", "setting": "[2]; class symbols", "result": "B (a compound having 3 or more and less than 10 is denoted as B)"}]}, {"smiles": "CC[C@H](C)[C@@H]1NC(=O)[C@H](CC(C)C)N(C)C(=O)C[C@@H](C(=O)N2CCOCC2)N(C)C(=O)[C@H](C2CCCC2)N(C)C(=O)C2(CCC2)NC(=O)[C@@H]2C[C@@H](OCC(F)F)CN2C(=O)[C@H](CCc2cc(F)c(C(F)(F)F)c(F)c2)NC(=O)CN(C)C(=O)[C@H](Cc2ccc(C(F)(F)F)cc2)N2CCCCC[C@@H](C2=O)N(C)C(=O)CN(C)C1=O", "note": "[PP1006]", "values": [{"measurement": "NRAS/KRAS (ratio of KD value with respect to NRAS to KD value with respect to KRAS)", "setting": "[1]; [3]", "result": "B (a compound having 3 or more and less than 10 is denoted as B)"}, {"measurement": "HRAS/KRAS (ratio of KD value with respect to HRAS to KD value with respect to KRAS)", "setting": "[2]; [4]", "result": "B (a compound having 3 or more and less than 10 is denoted as B)"}]}, {"smiles": "CC[C@H](C)[C@@H]1NC(=O)[C@H](CC(F)(F)F)N(C)C(=O)C[C@@H](C(=O)N(C)C)N(C)C(=O)[C@H](C2CCCC2)N(C)C(=O)C2(CC(C)(C)C2)NC(=O)[C@@H]2CC(F)(F)CN2C(=O)[C@H](CCc2cc(F)c(C(F)(F)F)c(F)c2)NC(=O)CN(C)C(=O)[C@H](Cc2ccc(C(F)(F)F)cc2)N2CC/C=C\\C[C@@H](C2=O)N(C)C(=O)CN(C)C1=O", "note": "[PP1710]", "values": [{"measurement": "NRAS/KRAS (ratio of KD value for NRAS to KD value for KRAS)", "setting": "[1]; [3]", "result": "A (a compound having 10 or more and less than 20 is denoted as A)"}, {"measurement": "HRAS/KRAS (ratio of KD value for HRAS to KD value for KRAS)", "setting": "[2]; [4]", "result": "B (a compound having 3 or more and less than 10 is denoted as B)"}]}, {"smiles": "CCC[C@H]1C(=O)N[C@@H]([C@@H](C)CC)C(=O)N(C)CC(=O)N(C)[C@H]2CCCCN(C2=O)[C@@H](Cc2ccc(C(F)(F)F)cc2)C(=O)N(C)CC(=O)N[C@@H](CCc2cc(F)c(C(F)(F)F)c(F)c2)C(=O)N2C[C@H](OCC)C[C@H]2C(=O)NC2(CCC2)C(=O)N(C)[C@@H](C2CCCC2)C(=O)N(C)[C@H](C(=O)N(C)C)CC(=O)N1C", "note": "[PP0694]", "values": [{"measurement": "NRAS/KRAS (ratio of KD value with respect to GDP-bound NRAS wild-type protein to KD value with respect to KRAS)", "setting": "[1]; SPR", "result": "C (A compound having a KD ratio of 0.1 or more and less than 3 is denoted as C)"}, {"measurement": "HRAS/KRAS (ratio of KD value with respect to GDP-bound HRAS wild-type protein to KD value with respect to KRAS)", "setting": "[2]; SPR", "result": "C (A compound having a KD ratio of 0.1 or more and less than 3 is denoted as C)"}]}, {"smiles": "CC[C@H](C)[C@@H]1NC(=O)[C@H](C)N(C)C(=O)C[C@@H](C(=O)N(C)C)N(C)C(=O)[C@H](C2CCCC2)N(C)C(=O)C2(CCC2)NC(=O)[C@@H]2CC(F)(F)CN2C(=O)[C@H](CCc2cc(F)c(C(F)(F)F)c(F)c2)NC(=O)CN(C)C(=O)[C@H](Cc2ccc(C(F)(F)F)cc2)N2CC/C=C\\C[C@@H](C2=O)N(C)C(=O)CN(C)C1=O", "note": "[PP1103]", "values": [{"measurement": "NRAS/KRAS (ratio of KD value with respect to NRAS to KD value with respect to KRAS)", "setting": "[1]; [3]", "result": "A (a compound having 10 or more and less than 20 is denoted as A)"}, {"measurement": "HRAS/KRAS (ratio of KD value with respect to HRAS to KD value with respect to KRAS)", "setting": "[2]; [4]", "result": "B (a compound having 3 or more and less than 10 is denoted as B)"}]}, {"smiles": "CCC[C@H]1C(=O)N[C@@H]([C@@H](C)CC)C(=O)N2CCC[C@H]2C(=O)N(C)[C@H]2C/C=C\\CCN(C2=O)[C@@H](Cc2ccc(C)cc2)C(=O)N(C)CC(=O)N[C@@H](CCc2cc(F)c(C(F)(F)F)c(F)c2)C(=O)N2C[C@H](OCC)C[C@H]2C(=O)N(C)C2(CCC2)C(=O)N(C)[C@@H](C2CCCC2)C(=O)N(C)[C@H](C(=O)N2CCCC2)CC(=O)N1C", "note": "[PP3117, (1S,4S,10S,13S,17S,20S,26S,28R,32S,38S,42Z)-20-cyclopentyl-32-[2-[3,5-difluoro-4-(trifluoromethyl)phenyl]ethyl]-28-ethoxy-2,14,18,21,24,36-hexamethyl-10-[(1S)-1-methylpropyl]-13-propyl-38-(p-tolylmethyl)-17-(pyrrolidine-1-carbonyl)spiro[2,8,11,14,18,21,24,30,33,36,39-undecazatetracyclo[37.5.1.0^4,8.0^26,30]pentatetracont-42-ene-23,1′-cyclobutane]-3,9,12,15,19,22,25,31,34,37,45-undecone]", "values": [{"measurement": "NRAS/KRAS (ratio of KD value with respect to GDP-bound NRAS wild-type protein to KD value with respect to KRAS)", "setting": "[1]; [5]", "result": "A (a compound having 10 or more and less than 20 is denoted as A)"}, {"measurement": "HRAS/KRAS (ratio of KD value with respect to GDP-bound HRAS wild-type protein to KD value with respect to KRAS)", "setting": "[2]; [5]", "result": "A (a compound having 10 or more and less than 20 is denoted as A)"}]}]}
